Results on one compound are retold here after patent US12090164B2, “Genotype-agnostic rescue of cystic fibrosis with small molecule bicarbonate channels” (The Board of Trustees of the University of Illinois, priority 2017, dated 2024).

“Also recorded” adds a separate entry of the source.

The conditions of data set [1]: aerosolized / nebulized; cited from earlier work.
Data set [2] deals with CuFi-1 (ΔF508/ΔF508) airway epithelia. Kind of data set: Ussing chamber permeabilization of differentiated CF airway epithelia. The format is cell-based, human. As to conditions: differentiated CuFi-1 epithelia. The method, then:
A series of natural products and synthetic compounds reported previously to permeabilize liposomes, cells, and/or nasal epithelia of mice to anions (11-14) were tested using an Ussing chamber and differentiated cultures of airway epithelia derived from an immortalized airway epithelial cell line from a CF patient having the most common ΔF508/ΔF508 genotype (CuFi-1) (15). […] The capacity for AmB and C35deOAmB to transport bicarbonate across cholesterol-containing POPC liposomes was tested using an adapted ^13C NMR-based assay (18).

In data set [3] the test system is protein ion channel-deficient yeast. The note with it: cited from earlier work.
For a further data set, the system named is CuFi-1 epithelia. Kind of data set: Lactate dehydrogenase (LDH) cytotoxicity assay. The class given is cell-based, human. The note with it: single AmB treatment, increasing time periods. The method, then:
Small diameter CuFi-1 cultured epithelia were used for this experiment (0.33 cm^2). An LDH Cytotoxicity Assay Kit (Cayman Chemical) was used to determine if AmB is toxic to CuFi-1 airway epithelia. Prior to treatment, media was removed from the basolateral side of epithelia and replaced with 500 µL of fresh USG media. Cultured epithelia were then treated with FC-72 vehicle, 2 and 50 μM AmB administered in perfluorocarbon (FC-72, Sigma) for 48 hours, 7 days, or 28 days. 48 hours prior to the end of each experiment time frame, basolateral media was changed again and […] of 10% Triton X-100 solution was added to the apical surface to elicit maximum release. On the day of the experiment, assay reagents were prepared according to kit instructions and 500 µL of USG media was added to three empty wells in a 24-well plate for background control. Culture inserts were removed from the wells and 250 µL of LDH Reaction Solution was added to each well. The plate was then gently shaken on an orbital shaker for 30 minutes at 37° C. Absorbance was read at 490 nm using a plate reader. % cytotoxicity was calculated as follows: […]

Data set [4] deals with primary cultured human CF epithelia. Kind of data set: ASL viscosity (FITC-dextran FRAP). The format is cell-based. The note with it: AmB 2 μM, 48 h. How it is done: ASL viscosity in airway epithelial cultures was determined (7, 25). Small diameter primary cultured epithelia were used for this experiment (0.33 cm^2). The apical surface was not washed for at least 2 weeks before study. Cultured epithelia were treated with 2 µM AmB administered in perfluorocarbon (FC-72, Sigma) for 48 hours. FITC-dextran (70 kD, Sigma) was then administered to the apical surface of epithelia as a dry powder 2 hrs before measurement of viscosity. FRAP was assayed in a humidified chamber at 37° C. using a Zeiss LSM 510 μMETA microscope. Images were acquired until maximal recovery was reached. At least 6 recovery curves from different locations in each culture were acquired and averaged to obtain data for one epithelial culture. The time constant […] was calculated by regression analysis from fluorescence recovery curves. Viscosity is expressed relative to the time constant of saline (τASL/τsaline).

The nature of data set [5]: 13C NMR H13CO3- efflux from liposomes. The note with it: 1:1,000 AmB:lipid, vs DMSO or water vehicle. The class given is biochemical.

On to `C[C@@H]1[C@H](O)[C@@H](C)/C=C/C=C/C=C/C=C/C=C/C=C/C=C/[C@H](O[C@@H]2O[C@H](C)[C@@H](O)[C@H](N)[C@@H]2O)C[C@@H]2O[C@](O)(C[C@@H](O)C[C@@H](O)[C@H](O)CC[C@@H](O)C[C@@H](O)CC(=O)O[C@H]1C)C[C@H](O)[C@H]2C(=O)O` [AmB, amphotericin B], for which the “safety of delivery to the lungs” value in data set [1] is “safely delivered to the lungs in aerosolized form”. For the same compound, the “change in short circuit current / permeabilization of epithelia” value in data set [2] is “exceptionally effective in causing a change in short circuit current”. In addition, in data set [3] (AmB pre-complexed with ergosterol), the “range of doses for which yeast growth rescue is observed” value is “extended by more than an order of magnitude”. Besides, the yeast growth rescue result in data set [3] is “can restore growth in protein ion channel-deficient yeast; also recorded: restores potassium transport and thus growth in yeast missing the potassium-selective Trk transporters”. Besides, the “cytotoxicity (LDH release, percent of total lysis by Triton X)” value in the data set on CuFi-1 epithelia is on record as “did not cause increased cytotoxicity as compared to vehicle”. In data set [4], the “ASL viscosity (τASL/τsaline)” value is “decreased ASL viscosity across a wide range of patient genotypes” and the “average magnitude of viscosity reduction” value is roughly 1.5 units. Further, the “H^13CO3^− efflux from liposomes” value in data set [5] was “AmB is able to facilitate transmembrane bicarbonate efflux; also recorded: Robust and rapid release; also recorded: caused H^13CO3^− efflux; also recorded: AmB is able to facilitate HCO3^− efflux”.
